{"source": "patent US20220105157A1", "about": "“Compositions and Methods for Promoting Angiogenesis in the Eye” (The Regents of the University of California, priority 2019, published 2022)", "key": {"[1]": {"test_system": "bovine aortic endothelial (BAE) cells", "assay": "BAE endothelial cell proliferation assay (alamar blue)", "assay_type": "cell-based", "details": "for reversal of LIF-induced growth inhibition in BAE cells: pre-incubation with inhibitor 1 hour, LIF 10 ng/ml, 6 days; for rescue of the cell death phenotype induced by LIF: BAE cells, co-incubation with inhibitor", "experimental": "(§1) The bovine endothelial proliferation assays were performed essentially as previously described (63, 64). BCE (1×10^3 cells/well) or BRE (5×10^2 cells/well) cells were seeded in 96-well plates in the culture medium (DMEM-low glucose supplemented with 10% BCS, 2 mM glutamine and antibiotics) plus testing materials with a total volume of 200 μl per well. BAE cells were plated in 96-well plates at a density of 2×10^3 cells in the culture medium (DMEM-low glucose supplemented with 1% BCS and antibiotics) plus testing material with a total volume of 200 μl per well. HRME cells were seeded at a density of 1×10^3 cells/well in gelatin-coated 96-well plates in assay medium (DMEM-low glucose supplemented with 20% FBS and antibiotics) plus testing materials to make a total volume 200 μl per well. For assays involving antibodies or small-molecule inhibitors, inhibitors or vehicle controls were first added and then test materials were added one hour later. After 6 days (unless otherwise specified), cells were incubated with alamar blue for 4 h. Fluorescence was measured at 530 nm excitation wavelength and 590 nm emission wavelength. Each experiment was carried out in duplicate/triplicate and repeated at least three times."}, "[2]": {"test_system": "bovine choroidal endothelial (BCE) cells", "assay": "BCE endothelial cell proliferation assay (alamar blue)", "assay_type": "cell-based", "design": "key to BCE cell growth normalized to the vehicle control group: ns, not statistically significant", "details": "for BCE cell growth normalized to the vehicle control group: day 6, n = 3; for effect on LIF-induced BCE cell growth: pre-incubation with inhibitor 1 hour, LIF 10 ng/ml, 6 days", "experimental": "as §1"}, "[3]": {"test_system": "phosphorylation of STAT3, ERK and AKT in BCE cells", "assay": "Western blotting of LIF signaling in BCE cells", "assay_type": "cell-based, bovine", "details": "pre-incubation 1 hour (baricitinib 2 μM, cobimetinib 150 nM, BEZ235 5 nM); for effect on AKT phosphorylation: with or without LIF 10 ng/ml 15 minutes", "experimental": "(§2) BCE and BAE cells were cultured in growth medium overnight. Growth medium was removed and then cells were washed twice with PBS. Recombinant human LIF was added to cells for 15 minutes, following 3-hour incubation in the following medium: DMEM-low glucose supplemented with 10% BCS, 2 mM glutamine and antibiotics for BCE cells, and DMEM-low glucose supplemented with 1% BCS and antibiotics for BAE cells. […] Cells were then lysed with RIPA lysis buffer (Life Technologies, CAT #89901) plus protease and phosphatase inhibitor cocktail (ThermoFisher Scientific CAT #78440). Protein concentrations in cell lysates were measured with the BCA assay (ThermoFisher Scientific CAT #23227). Equal amount of proteins were subjected to electrophoresis in NuPAGE 4-12% Bis-Tris gels (ThermoFisher Scientific, CAT #NW04125BOX) and then transferred onto PVDF membranes. Membranes were blocked with 5% non-fat milk in TBST at room temperature for 1 hour, incubated with primary antibodies indicated below in TBST containing 0.5% non-fat milk at 4° C. overnight then with secondary HRP-conjugated antibodies (1:2000, GE Healthcare) at room temperature for 1 h. Signals were developed with SuperSignal™ West Pico PLUS Chemiluminescent Substrate (ThermoFisher Scientific). Primary antibodies used: anti-phospho-STAT3 (Cell Signaling, CAT #9131, 1:3000), anti-STAT3 (Cell Signaling, CAT #4904, 1:3000), anti-phospho-ERK (Cell Signaling, CAT #4376, 1:5000), anti-ERK (Cell Signaling, CAT #4695, 1:5000), anti-phospho-AKT Ser473 (Cell Signaling, CAT #4060, 1:2000), anti-AKT (Cell Signaling, CAT #4691, 1:2000) and HRP-conjugated anti-beta-actin (Sigma, CAT #AC-15, 1; 10000)."}, "[4]": {"test_system": "phosphorylation of STAT3, ERK and AKT in BAE cells", "assay": "Western blotting of LIF signaling in BAE cells", "assay_type": "cell-based, bovine", "details": "pretreatment 1 hour (baricitinib 2 μM, cobimetinib 150 nM, BEZ235 5 nM), LIF 10 ng/ml 15 minutes", "experimental": "as §2"}, "[5]": {"test_system": "retinal vasculature of mouse eyes", "assay": "Intravitreal injection of recombinant proteins in mouse eyes, retinal vessel density", "assay_type": "in vivo", "details": "after exposure to 95° C. for 2 hours", "experimental": "Male C57BL/6J mice (6-8 week and P5) were anesthetized with ketamine/Xylazine cocktail. The indicated amounts of recombinant LIF (Sigma, CAT #SRP9001) in 1 μl of PBS and PBS vehicle control were injected intravitreally with a 33-gauge Hamilton syringe. Seven (for adult mice) or 3 (for neonatal mice) days after injection, animals were euthanized, eyes were then enucleated and fixed in 4% paraformaldehyde (PFA) for 15 min. Choroid-sclera complexes and retinas were separated and anti-CD31 immunofluorescence (IF) or lectin labeling was performed to evidence the vasculature by whole mount staining of both retina and choroidal tissues or flat-mounts of retina. For CD31 IF, rat anti-mouse antibody (BD Biosciences, CAT #550274) was diluted 1:100 and incubated overnight at 4° C. After 4-hour incubation with the Alexa Fluor-488-conjugated anti-rat antibody (Life Technologies, CAT #A11006), whole mounts were imaged via the 488 nm channel using Keyence Microscope BZ-X710 (Keyence Corporation, Osaka, Japan) or A1R Confocal STORM super-resolution system (Nikon). For lectin staining, Dylight-488-labeled lectin (Vector Laboratories, CAT #DL-1174) was diluted at 1:200 and images were obtained using A1R Confocal STORM super-resolution system (Nikon). For Quantification of vascular density in choroids and retina was carried out by Image J. Student's t test was used for statistical analysis. Each experiment was repeated three times with similar results each time, and each treatment group consists of 4 or 5 individual samples in every experiment. All animal experimental procedures were approved by the Institutional Animal Care and Use Committee (IACUC) of the University of California San Diego and conducted in accordance with the guidelines of the Animal Care Program (ACP).\nOptical coherence tomography angiography (OCTA) imaging of the retina of adult mice was performed 7 days after LIF injection, using a 1300 nm optical coherence tomography (OCT) system developed by Dr. R. K. Wang's group at University of Washington Seattle, in agreement with previously described methodology (66). Briefly, the swept laser operated in single longitude mode with a 90 nm bandwidth centered at 1300 nm and 200 kHz A-line rate was used to scan mouse retina and to generate images of vasculature in a field of view of 1.5×1.5 mm^2. 2500 B-frames were captured at 500 cross-sections with five repeated B-frames at each cross-section. To quantify the retinal vascular density, retinal and choroidal layers in 3D structure OCT scans were separated by the hyper-reflecting retinal pigment epithelium (RPE). Then the en face maximum intensity projection was generated. The vessel density was then determined by calculating the percentages of vessel-covered area in total area of view using the ImageJ software."}}, "note": "Residues, ends and D or L forms follow the SMILES beside them. *: point of attachment. Cbz = O=C(OCc1ccccc1)*; CH2F = FC*", "data": [{"compound": "CCCNC(=O)[C@H]1O[C@@H]1C(=O)N[C@H](C(=O)N1CCC[C@H]1C(=O)OC)[C@@H](C)CC", "note": "[CA074me, CA-074 me]", "values": [{"measurement": "reversal of LIF-induced growth inhibition in BAE cells", "setting": "[1]", "result": "alleviated LIF-induced growth inhibition"}]}, {"compound": "IL-8: recombinant human IL-8", "values": [{"measurement": "stimulation of BCE cell growth (mitogenic activity)", "setting": "[2]", "result": "fail to stimulate BCE cell growth"}, {"measurement": "BCE cell growth normalized to the vehicle control group", "setting": "[2]; 1 ng/ml", "result": "ns"}, {"measurement": "BCE cell growth normalized to the vehicle control group", "setting": "[2]; 3 ng/ml", "result": "ns"}, {"measurement": "BCE cell growth normalized to the vehicle control group", "setting": "[2]; 10 ng/ml", "result": "ns"}, {"measurement": "BCE cell growth normalized to the vehicle control group", "setting": "[2]; 30 ng/ml", "result": "ns"}, {"measurement": "BCE cell growth normalized to the vehicle control group", "setting": "[2]; 100 ng/ml", "result": "ns"}, {"measurement": "BCE cell growth normalized to the vehicle control group", "setting": "[2]; 300 ng/ml", "result": "ns"}]}, {"compound": "COC(=O)C[C@H](NC(=O)[C@H](C)NC(=O)[C@@H](NC(=O)OCc1ccccc1)C(C)C)C(=O)CF", "note": "[Z-VAD-fmk, Z-VAD-FMK] (Cbz-Val-Ala-Asp(OMe)-CH2F)", "values": [{"measurement": "rescue of the cell death phenotype induced by LIF", "setting": "[1]", "result": "not able rescue"}]}, {"compound": "Cn1c(=O)n(-c2ccc(C(C)(C)C#N)cc2)c2c3cc(-c4cnc5ccccc5c4)ccc3ncc21", "note": "[BEZ235, reference compound]", "values": [{"measurement": "effect on AKT phosphorylation", "setting": "[3]", "result": "only moderate effects"}, {"measurement": "effect on LIF-induced BCE cell growth", "setting": "[2]", "result": "no effect"}, {"measurement": "effect on LIF-induced phosphorylation of AKT", "setting": "[4]", "result": "effectively repressed"}]}, {"compound": "COC(=O)C[C@H](NC(=O)[C@@H](NC(=O)c1ccc2ccccc2n1)C(C)C)C(=O)COc1c(F)cccc1F", "note": "[Q-VD-OPH, Q-VD(OMe)-OPh]", "values": [{"measurement": "rescue of the cell death phenotype induced by LIF", "setting": "[1]", "result": "not able rescue"}]}, {"compound": "PDGF-AA: recombinant human PDGF-AA", "values": [{"measurement": "stimulation of BCE cell growth (mitogenic activity)", "setting": "[2]", "result": "fail to stimulate BCE cell growth"}, {"measurement": "BCE cell growth normalized to the vehicle control group", "setting": "[2]; 1 ng/ml", "result": "ns"}, {"measurement": "BCE cell growth normalized to the vehicle control group", "setting": "[2]; 3 ng/ml", "result": "ns"}, {"measurement": "BCE cell growth normalized to the vehicle control group", "setting": "[2]; 10 ng/ml", "result": "ns"}, {"measurement": "BCE cell growth normalized to the vehicle control group", "setting": "[2]; 30 ng/ml", "result": "ns"}, {"measurement": "BCE cell growth normalized to the vehicle control group", "setting": "[2]; 100 ng/ml", "result": "ns"}, {"measurement": "BCE cell growth normalized to the vehicle control group", "setting": "[2]; 300 ng/ml", "result": "ns"}]}, {"compound": "IGFBP3: recombinant IGFBP3, a secreted protein previously shown to be an angiogenesis inhibitor", "values": [{"measurement": "BAE cell growth", "setting": "[1]", "result": "had no effects"}]}, {"compound": "COC(=O)CC[C@H](NC(=O)[C@H](CC(=O)OC)NC(=O)OCc1ccccc1)C(=O)N[C@H](C(=O)N[C@@H](CC(=O)OC)C(=O)CF)C(C)C", "note": "[Z-DEVD-fmk, Z-DEVD-FMK]", "values": [{"measurement": "rescue of the cell death phenotype induced by LIF", "setting": "[1]", "result": "not able rescue"}]}, {"compound": "Cl.Nc1cccc2c(=O)[nH]ccc12", "note": "[5-AIQ, 5-AIQ hydrochloride]", "values": [{"measurement": "rescue of the cell death phenotype induced by LIF", "setting": "[1]", "result": "not able rescue"}]}, {"compound": "O=C(NCc1ccccc1)[C@H](Cc1ccccc1)NC(=O)[C@@H]1O[C@@H]1C(=O)NCCc1ccc(O)cc1", "note": "[CAA0225]", "values": [{"measurement": "reversal of LIF-induced growth inhibition in BAE cells", "setting": "[1]", "result": "repressed LIF-induced growth inhibition in BAE cells although by less extent"}]}, {"compound": "O=C(c1ccc(F)c(F)c1Nc1ccc(I)cc1F)N1CC(O)([C@@H]2CCCCN2)C1", "note": "[cobimetinib]", "values": [{"measurement": "effect on LIF-induced phosphorylation of ERK MAPK", "setting": "[3]; then LIF 10 ng/ml 15 minutes", "result": "blocked"}, {"measurement": "effect on LIF-induced phosphorylation of STAT3", "setting": "[3]; then LIF 10 ng/ml 15 minutes", "result": "no effects"}, {"measurement": "effect on AKT phosphorylation", "setting": "[3]", "result": "no effects"}, {"measurement": "effect on LIF-induced BCE cell growth", "setting": "[2]", "result": "minimal effects"}, {"measurement": "effect on LIF-induced phosphorylation of ERK", "setting": "[4]", "result": "effectively repressed"}]}, {"compound": "heat-inactivated LIF: recombinant LIF heat-inactivated by exposure to 95° C. for 2 hours", "values": [{"measurement": "ability to promote angiogenesis in vivo", "setting": "[5]", "result": "abolished"}, {"measurement": "ability to promote mitogenesis in vitro", "setting": "[2]; after exposure to 95° C. for 2 hours", "result": "abolished"}]}, {"compound": "CCCNC(=O)[C@H]1O[C@@H]1C(=O)N[C@H](C(=O)N1CCC[C@H]1C(=O)O)[C@@H](C)CC", "note": "[CA074, CA-074]", "values": [{"measurement": "suppression of LIF-induced effects in BAE cells", "setting": "[1]; even at the highest dose tested, 50 μM", "result": "not able to suppress"}]}]}
